This is an account of results in patent publication US9340590B2 (priority 2011, dated 2016).

Holding throughout (test): cell-based
One test deals with hNav1.7 (Homo sapiens, UniProt Q15858). It is filed as cell-based. Particulars: IonWorks Quattro, Use; read-out: IWQ Use Nav1.7. In general terms: Patch clamp records ionic current or voltage across a cell membrane.
In a further test the target is hNav1.5 (Homo sapiens, UniProt Q14524). The conditions noted are these: IonWorks Quattro, Use; read-out: IWQ Use Nav1.5.
Another test addresses hNav1.3 (Homo sapiens, UniProt Q9NY46). Particulars: IonWorks Quattro, Use; read-out: IWQ Use Nav1.3.

Positions of bridges follow the written chain, without caps; N, C: chain ends. Non-standard residues stand in square brackets, D forms with d. Residues, ends and D or L forms follow the SMILES beside them. NMeF = CN[C@@H](Cc1ccccc1)C(=O)O; Phg = N[C@H](C(=O)O)c1ccccc1

Sequence of hNav1.3 (Q9NY46 whole entry, looked up): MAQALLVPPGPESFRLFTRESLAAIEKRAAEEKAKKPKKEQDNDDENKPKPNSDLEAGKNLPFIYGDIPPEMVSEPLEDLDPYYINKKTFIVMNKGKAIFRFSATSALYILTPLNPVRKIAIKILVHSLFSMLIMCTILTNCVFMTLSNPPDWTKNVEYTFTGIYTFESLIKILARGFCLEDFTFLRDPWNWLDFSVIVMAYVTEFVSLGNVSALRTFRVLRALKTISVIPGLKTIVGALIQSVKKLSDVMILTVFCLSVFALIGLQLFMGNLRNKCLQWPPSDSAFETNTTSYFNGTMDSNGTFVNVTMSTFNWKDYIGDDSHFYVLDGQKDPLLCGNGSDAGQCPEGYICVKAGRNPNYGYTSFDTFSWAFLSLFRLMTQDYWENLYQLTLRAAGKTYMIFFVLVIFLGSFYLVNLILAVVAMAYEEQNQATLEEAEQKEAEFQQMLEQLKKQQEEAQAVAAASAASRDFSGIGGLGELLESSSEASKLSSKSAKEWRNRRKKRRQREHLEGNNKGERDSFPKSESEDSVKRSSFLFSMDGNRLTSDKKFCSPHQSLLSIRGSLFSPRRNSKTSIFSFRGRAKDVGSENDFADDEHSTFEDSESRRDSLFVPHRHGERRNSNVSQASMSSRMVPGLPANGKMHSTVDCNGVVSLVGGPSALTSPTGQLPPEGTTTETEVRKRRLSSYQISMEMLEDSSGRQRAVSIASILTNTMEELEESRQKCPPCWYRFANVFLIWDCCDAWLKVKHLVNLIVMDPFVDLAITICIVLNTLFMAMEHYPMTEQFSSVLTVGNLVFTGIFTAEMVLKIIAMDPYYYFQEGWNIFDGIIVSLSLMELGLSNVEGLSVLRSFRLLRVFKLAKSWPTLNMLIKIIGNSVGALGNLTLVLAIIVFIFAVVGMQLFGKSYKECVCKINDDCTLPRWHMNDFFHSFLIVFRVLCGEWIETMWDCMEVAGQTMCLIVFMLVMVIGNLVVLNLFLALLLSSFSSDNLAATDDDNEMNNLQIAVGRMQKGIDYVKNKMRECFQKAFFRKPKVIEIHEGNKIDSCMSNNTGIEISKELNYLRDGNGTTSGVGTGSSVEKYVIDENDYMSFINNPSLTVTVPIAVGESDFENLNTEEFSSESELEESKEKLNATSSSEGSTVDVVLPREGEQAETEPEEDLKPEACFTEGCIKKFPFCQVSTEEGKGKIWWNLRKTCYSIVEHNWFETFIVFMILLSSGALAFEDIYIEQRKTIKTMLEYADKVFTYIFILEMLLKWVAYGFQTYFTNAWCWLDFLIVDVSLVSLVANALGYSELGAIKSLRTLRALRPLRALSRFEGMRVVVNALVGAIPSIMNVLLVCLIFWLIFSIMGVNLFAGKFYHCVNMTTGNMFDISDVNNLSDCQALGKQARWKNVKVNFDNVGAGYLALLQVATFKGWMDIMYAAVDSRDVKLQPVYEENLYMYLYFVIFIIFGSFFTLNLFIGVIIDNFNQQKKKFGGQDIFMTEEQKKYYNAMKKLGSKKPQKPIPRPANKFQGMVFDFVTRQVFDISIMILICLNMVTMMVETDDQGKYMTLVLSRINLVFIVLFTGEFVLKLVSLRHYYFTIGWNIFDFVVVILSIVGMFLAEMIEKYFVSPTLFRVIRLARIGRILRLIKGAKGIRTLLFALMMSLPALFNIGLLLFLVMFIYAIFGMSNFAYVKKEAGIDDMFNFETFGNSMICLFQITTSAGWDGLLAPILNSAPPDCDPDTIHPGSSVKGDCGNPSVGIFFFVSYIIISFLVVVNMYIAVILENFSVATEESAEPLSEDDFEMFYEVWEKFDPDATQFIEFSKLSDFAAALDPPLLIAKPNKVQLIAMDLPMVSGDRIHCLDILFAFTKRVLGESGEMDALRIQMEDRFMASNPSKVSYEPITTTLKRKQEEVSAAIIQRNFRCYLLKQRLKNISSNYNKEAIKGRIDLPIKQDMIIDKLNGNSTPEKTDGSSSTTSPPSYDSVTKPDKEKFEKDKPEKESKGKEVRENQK
Sequence of hNav1.7 (Q15858 whole entry, looked up): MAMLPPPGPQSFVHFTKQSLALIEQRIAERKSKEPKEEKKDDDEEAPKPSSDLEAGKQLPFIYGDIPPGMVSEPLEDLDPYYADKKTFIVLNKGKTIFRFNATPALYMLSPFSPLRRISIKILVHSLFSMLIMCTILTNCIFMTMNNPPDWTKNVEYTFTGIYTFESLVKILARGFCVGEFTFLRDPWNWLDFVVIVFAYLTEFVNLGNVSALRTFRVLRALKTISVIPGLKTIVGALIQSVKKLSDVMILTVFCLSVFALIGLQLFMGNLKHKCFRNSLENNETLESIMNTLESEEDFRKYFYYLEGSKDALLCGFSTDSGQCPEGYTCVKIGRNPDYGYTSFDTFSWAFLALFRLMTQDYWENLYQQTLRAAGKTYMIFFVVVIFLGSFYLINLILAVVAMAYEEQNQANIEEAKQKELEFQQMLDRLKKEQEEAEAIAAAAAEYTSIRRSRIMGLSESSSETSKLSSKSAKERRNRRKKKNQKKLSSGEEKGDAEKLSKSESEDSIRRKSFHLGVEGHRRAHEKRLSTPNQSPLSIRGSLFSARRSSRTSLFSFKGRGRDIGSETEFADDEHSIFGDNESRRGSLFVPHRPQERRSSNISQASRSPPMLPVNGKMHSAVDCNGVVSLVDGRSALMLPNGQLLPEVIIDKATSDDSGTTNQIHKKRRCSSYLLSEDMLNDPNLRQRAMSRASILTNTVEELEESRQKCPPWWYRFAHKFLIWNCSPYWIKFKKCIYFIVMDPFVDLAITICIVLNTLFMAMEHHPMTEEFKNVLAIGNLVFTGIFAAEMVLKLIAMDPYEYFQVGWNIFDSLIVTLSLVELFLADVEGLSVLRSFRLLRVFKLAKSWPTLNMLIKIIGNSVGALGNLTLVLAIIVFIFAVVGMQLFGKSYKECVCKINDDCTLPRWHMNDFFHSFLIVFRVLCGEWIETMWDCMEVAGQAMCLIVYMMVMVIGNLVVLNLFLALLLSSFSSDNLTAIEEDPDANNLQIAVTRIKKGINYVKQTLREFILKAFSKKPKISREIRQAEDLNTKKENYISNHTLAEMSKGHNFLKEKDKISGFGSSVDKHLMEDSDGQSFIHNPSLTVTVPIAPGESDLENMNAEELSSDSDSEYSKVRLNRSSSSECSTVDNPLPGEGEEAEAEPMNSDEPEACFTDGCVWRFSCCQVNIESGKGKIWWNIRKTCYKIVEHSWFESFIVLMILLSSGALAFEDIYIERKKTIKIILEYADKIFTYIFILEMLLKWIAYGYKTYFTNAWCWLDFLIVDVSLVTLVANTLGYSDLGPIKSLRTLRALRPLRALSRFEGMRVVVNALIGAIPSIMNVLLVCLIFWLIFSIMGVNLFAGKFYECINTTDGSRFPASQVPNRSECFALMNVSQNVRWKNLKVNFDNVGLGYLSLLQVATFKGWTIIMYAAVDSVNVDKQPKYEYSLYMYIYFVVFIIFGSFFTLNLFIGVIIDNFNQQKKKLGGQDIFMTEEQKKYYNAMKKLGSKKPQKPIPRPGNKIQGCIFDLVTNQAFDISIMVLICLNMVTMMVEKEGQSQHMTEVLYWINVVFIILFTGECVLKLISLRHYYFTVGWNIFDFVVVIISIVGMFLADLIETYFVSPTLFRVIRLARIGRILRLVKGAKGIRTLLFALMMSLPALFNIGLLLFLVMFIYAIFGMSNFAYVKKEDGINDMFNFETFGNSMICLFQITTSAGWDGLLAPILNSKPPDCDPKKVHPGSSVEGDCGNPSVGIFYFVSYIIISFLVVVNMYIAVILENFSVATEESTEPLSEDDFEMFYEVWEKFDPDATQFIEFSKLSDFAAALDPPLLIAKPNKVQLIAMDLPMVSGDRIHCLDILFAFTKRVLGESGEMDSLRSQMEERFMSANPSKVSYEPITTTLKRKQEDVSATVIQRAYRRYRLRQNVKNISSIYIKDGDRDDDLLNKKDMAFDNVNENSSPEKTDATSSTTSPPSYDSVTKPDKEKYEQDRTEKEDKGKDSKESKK

On to `CC[C@H](C)[C@@H]1NC(=O)[C@@H]2CSSC[C@@H]3NC(=O)[C@H](CC(N)=O)NC(=O)[C@H](CC(C)C)NC(=O)[C@H](CC(N)=O)NC(=O)[C@@H]4CCCN4C(=O)[C@H](CCCNC(=N)N)NC(=O)[C@H](CSSC[C@H](NC(=O)[C@@H](N)CC(=O)O)C(=O)N[C@@H](CC(C)C)C(=O)NCC(=O)N[C@@H](Cc4ccccc4)C(=O)N[C@@H](CCSC)C(=O)N[C@@H](CCCNC(=N)N)C(=O)N[C@@H](CCCCN)C(=O)N2)NC(=O)[C@H](CSSC[C@@H](C(=O)N[C@@H](CCCCN)C(=O)N[C@@H](Cc2ccc(O)cc2)C(=O)N[C@H](C(=O)N[C@@H](Cc2ccccc2)C(N)=O)C(C)C)NC(=O)[C@H](Cc2c[nH]c4ccccc24)NC(=O)[C@H](CCCCN)NC(=O)[C@H](Cc2c[nH]cn2)NC(=O)[C@H]([C@@H](C)O)NC(=O)[C@H](CCCNC(=N)N)NC(=O)[C@H](CO)NC3=O)NC(=O)[C@H](CCCCN)NC(=O)[C@H](CC(=O)O)NC(=O)[C@H](CC(N)=O)NC(=O)[C@H](CC(=O)O)NC(=O)[C@@H]2CCCN2C1=O` [compound 325] (H-DCLGFMRKCIPDNDKCCRPNLNCSRTHKWCKYVF-NH2; disulfide 2-17, 9-23, 16-30), for which the IC50 is 240 nM at hNav1.7, 8.07 µM on hNav1.5 and 90 nM at hNav1.3.
Turning to `CC[C@H](C)[C@@H]1NC(=O)[C@@H]2CSSC[C@@H]3NC(=O)[C@H](Cc4c[nH]cn4)NC(=O)[C@H](CC(C)C)NC(=O)[C@H](CC(N)=O)NC(=O)[C@@H]4CCCN4C(=O)[C@H](CCCNC(=N)N)NC(=O)[C@H](CSSC[C@H](NC(=O)[C@@H](N)CC(=O)O)C(=O)N[C@@H](CC(C)C)C(=O)NCC(=O)N[C@@H](Cc4ccccc4)C(=O)N[C@@H](CCSC)C(=O)N[C@@H](CCCNC(=N)N)C(=O)N[C@@H](CCCCN)C(=O)N2)NC(=O)[C@H](CSSC[C@@H](C(=O)N[C@@H](CCCCN)C(=O)N[C@@H](Cc2ccc(O)cc2)C(=O)N[C@H](C(=O)N[C@@H](Cc2ccccc2)C(N)=O)C(C)C)NC(=O)[C@H](Cc2c[nH]c4ccccc24)NC(=O)[C@H](CCCCN)NC(=O)[C@H](Cc2c[nH]cn2)NC(=O)[C@H]([C@@H](C)O)NC(=O)[C@H](CCCNC(=N)N)NC(=O)[C@H](CO)NC3=O)NC(=O)[C@H](CCCCN)NC(=O)[C@H](CC(=O)O)NC(=O)[C@H](CC(N)=O)NC(=O)[C@H](CC(=O)O)NC(=O)[C@@H]2CCCN2C1=O` [compound 326] (H-DCLGFMRKCIPDNDKCCRPNLHCSRTHKWCKYVF-NH2; disulfide 2-17, 9-23, 16-30), the IC50 on hNav1.7 came out at 410 nM; at hNav1.5, 15.6 µM; at hNav1.3, 100 nM.
For the molecule `CC[C@H](C)[C@@H]1NC(=O)[C@@H]2CSSC[C@@H]3NC(=O)[C@H](CC(=O)O)NC(=O)[C@H](CC(C)C)NC(=O)[C@H](CC(N)=O)NC(=O)[C@@H]4CCCN4C(=O)[C@H](CCCNC(=N)N)NC(=O)[C@H](CSSC[C@H](NC(=O)[C@@H](N)CC(=O)O)C(=O)N[C@@H](CC(C)C)C(=O)NCC(=O)N[C@@H](Cc4ccccc4)C(=O)N[C@@H](CCSC)C(=O)N[C@@H](CCCNC(=N)N)C(=O)N[C@@H](CCCCN)C(=O)N2)NC(=O)[C@H](CSSC[C@@H](C(=O)N[C@@H](CCCCN)C(=O)N[C@@H](Cc2ccc(O)cc2)C(=O)N[C@H](C(=O)N[C@@H](Cc2ccccc2)C(N)=O)C(C)C)NC(=O)[C@H](Cc2c[nH]c4ccccc24)NC(=O)[C@H](CCCCN)NC(=O)[C@H](Cc2c[nH]cn2)NC(=O)[C@H]([C@@H](C)O)NC(=O)[C@H](CCCNC(=N)N)NC(=O)[C@H](CO)NC3=O)NC(=O)[C@H](CCCCN)NC(=O)[C@H](CC(=O)O)NC(=O)[C@H](CC(N)=O)NC(=O)[C@H](CC(=O)O)NC(=O)[C@@H]2CCCN2C1=O` [compound 327] (H-DCLGFMRKCIPDNDKCCRPNLDCSRTHKWCKYVF-NH2; disulfide 2-17, 9-23, 16-30), the values for the IC50 on hNav1.7, at hNav1.5 and on hNav1.3 were 1500 nM, 13.3 µM and 630 nM, respectively.
For `CC[C@H](C)[C@@H]1NC(=O)[C@@H]2CSSC[C@@H]3NC(=O)[C@H](Cc4ccccc4)N(C)C(=O)[C@H](CC(C)C)NC(=O)[C@H](CC(N)=O)NC(=O)[C@@H]4CCCN4C(=O)[C@H](CCCNC(=N)N)NC(=O)[C@H](CSSC[C@H](NC(=O)[C@@H](N)CC(=O)O)C(=O)N[C@@H](CC(C)C)C(=O)NCC(=O)N[C@@H](Cc4ccccc4)C(=O)N[C@@H](CCSC)C(=O)N[C@@H](CCCNC(=N)N)C(=O)N[C@@H](CCCCN)C(=O)N2)NC(=O)[C@H](CSSC[C@@H](C(=O)N[C@@H](CCCCN)C(=O)N[C@@H](Cc2ccc(O)cc2)C(=O)N[C@H](C(=O)N[C@@H](Cc2ccccc2)C(N)=O)C(C)C)NC(=O)[C@H](Cc2c[nH]c4ccccc24)NC(=O)[C@H](CCCCN)NC(=O)[C@H](Cc2c[nH]cn2)NC(=O)[C@H]([C@@H](C)O)NC(=O)[C@H](CCCNC(=N)N)NC(=O)[C@H](CO)NC3=O)NC(=O)[C@H](CCCCN)NC(=O)[C@H](CC(=O)O)NC(=O)[C@H](CC(N)=O)NC(=O)[C@H](CC(=O)O)NC(=O)[C@@H]2CCCN2C1=O` [compound 328] (H-DCLGFMRKCIPDNDKCCRPNL[NMeF]CSRTHKWCKYVF-NH2; disulfide 2-17, 9-23, 16-30), in that order: 20600 nM, 20.4 µM and 7370 nM.
Consider `CC[C@H](C)[C@@H]1NC(=O)[C@@H]2CSSC[C@@H]3NC(=O)[C@H]([C@@H](C)O)NC(=O)[C@H](CC(C)C)NC(=O)[C@H](CC(N)=O)NC(=O)[C@@H]4CCCN4C(=O)[C@H](CCCNC(=N)N)NC(=O)[C@H](CSSC[C@H](NC(=O)[C@@H](N)CC(=O)O)C(=O)N[C@@H](CC(C)C)C(=O)NCC(=O)N[C@@H](Cc4ccccc4)C(=O)N[C@@H](CCSC)C(=O)N[C@@H](CCCNC(=N)N)C(=O)N[C@@H](CCCCN)C(=O)N2)NC(=O)[C@H](CSSC[C@@H](C(=O)N[C@@H](CCCCN)C(=O)N[C@@H](Cc2ccc(O)cc2)C(=O)N[C@H](C(=O)N[C@@H](Cc2ccccc2)C(N)=O)C(C)C)NC(=O)[C@H](Cc2c[nH]c4ccccc24)NC(=O)[C@H](CCCCN)NC(=O)[C@H](Cc2c[nH]cn2)NC(=O)[C@H]([C@@H](C)O)NC(=O)[C@H](CCCNC(=N)N)NC(=O)[C@H](CO)NC3=O)NC(=O)[C@H](CCCCN)NC(=O)[C@H](CC(=O)O)NC(=O)[C@H](CC(N)=O)NC(=O)[C@H](CC(=O)O)NC(=O)[C@@H]2CCCN2C1=O` [compound 329] (H-DCLGFMRKCIPDNDKCCRPNLTCSRTHKWCKYVF-NH2; disulfide 2-17, 9-23, 16-30), for which the IC50 is 120 nM on hNav1.7, 4.59 µM on hNav1.5 and 80 nM at hNav1.3.
In the same order, the values of `CC[C@H](C)[C@@H]1NC(=O)[C@@H]2CSSC[C@@H]3NC(=O)[C@H](c4ccccc4)NC(=O)[C@H](CC(C)C)NC(=O)[C@H](CC(N)=O)NC(=O)[C@@H]4CCCN4C(=O)[C@H](CCCNC(=N)N)NC(=O)[C@H](CSSC[C@H](NC(=O)[C@@H](N)CC(=O)O)C(=O)N[C@@H](CC(C)C)C(=O)NCC(=O)N[C@@H](Cc4ccccc4)C(=O)N[C@@H](CCSC)C(=O)N[C@@H](CCCNC(=N)N)C(=O)N[C@@H](CCCCN)C(=O)N2)NC(=O)[C@H](CSSC[C@@H](C(=O)N[C@@H](CCCCN)C(=O)N[C@@H](Cc2ccc(O)cc2)C(=O)N[C@H](C(=O)N[C@@H](Cc2ccccc2)C(N)=O)C(C)C)NC(=O)[C@H](Cc2c[nH]c4ccccc24)NC(=O)[C@H](CCCCN)NC(=O)[C@H](Cc2c[nH]cn2)NC(=O)[C@H]([C@@H](C)O)NC(=O)[C@H](CCCNC(=N)N)NC(=O)[C@H](CO)NC3=O)NC(=O)[C@H](CCCCN)NC(=O)[C@H](CC(=O)O)NC(=O)[C@H](CC(N)=O)NC(=O)[C@H](CC(=O)O)NC(=O)[C@@H]2CCCN2C1=O` [compound 330] (H-DCLGFMRKCIPDNDKCCRPNL[Phg]CSRTHKWCKYVF-NH2; disulfide 2-17, 9-23, 16-30) are 180 nM, 4.69 µM and 70 nM.
In the case of `CC[C@H](C)[C@@H]1NC(=O)[C@@H]2CSSC[C@@H]3NC(=O)[C@H](Cc4ccc(O)cc4)NC(=O)[C@H](CC(C)C)NC(=O)[C@H](CC(N)=O)NC(=O)[C@@H]4CCCN4C(=O)[C@H](CCCNC(=N)N)NC(=O)[C@H](CSSC[C@H](NC(=O)[C@@H](N)CC(=O)O)C(=O)N[C@@H](CC(C)C)C(=O)NCC(=O)N[C@@H](Cc4ccccc4)C(=O)N[C@@H](CCSC)C(=O)N[C@@H](CCCNC(=N)N)C(=O)N[C@@H](CCCCN)C(=O)N2)NC(=O)[C@H](CSSC[C@@H](C(=O)N[C@@H](CCCCN)C(=O)N[C@@H](Cc2ccc(O)cc2)C(=O)N[C@H](C(=O)N[C@@H](Cc2ccccc2)C(N)=O)C(C)C)NC(=O)[C@H](Cc2c[nH]c4ccccc24)NC(=O)[C@H](CCCCN)NC(=O)[C@H](Cc2c[nH]cn2)NC(=O)[C@H]([C@@H](C)O)NC(=O)[C@H](CCCNC(=N)N)NC(=O)[C@H](CO)NC3=O)NC(=O)[C@H](CCCCN)NC(=O)[C@H](CC(=O)O)NC(=O)[C@H](CC(N)=O)NC(=O)[C@H](CC(=O)O)NC(=O)[C@@H]2CCCN2C1=O` [compound 331] (H-DCLGFMRKCIPDNDKCCRPNLYCSRTHKWCKYVF-NH2; disulfide 2-17, 9-23, 16-30), the IC50 on hNav1.7 was 560 nM; on hNav1.5 it was 4.26 µM; on hNav1.3, 500 nM.
In the same order, the values of `CC[C@H](C)[C@@H]1NC(=O)[C@@H]2CSSC[C@@H]3NC(=O)[C@H](CCSC)NC(=O)[C@H](CC(C)C)NC(=O)[C@H](CC(N)=O)NC(=O)[C@@H]4CCCN4C(=O)[C@H](CCCNC(=N)N)NC(=O)[C@H](CSSC[C@H](NC(=O)[C@@H](N)CC(=O)O)C(=O)N[C@@H](CC(C)C)C(=O)NCC(=O)N[C@@H](Cc4ccccc4)C(=O)N[C@@H](CCSC)C(=O)N[C@@H](CCCNC(=N)N)C(=O)N[C@@H](CCCCN)C(=O)N2)NC(=O)[C@H](CSSC[C@@H](C(=O)N[C@@H](CCCCN)C(=O)N[C@@H](Cc2ccc(O)cc2)C(=O)N[C@H](C(=O)N[C@@H](Cc2ccccc2)C(N)=O)C(C)C)NC(=O)[C@H](Cc2c[nH]c4ccccc24)NC(=O)[C@H](CCCCN)NC(=O)[C@H](Cc2c[nH]cn2)NC(=O)[C@H]([C@@H](C)O)NC(=O)[C@H](CCCNC(=N)N)NC(=O)[C@H](CO)NC3=O)NC(=O)[C@H](CCCCN)NC(=O)[C@H](CC(=O)O)NC(=O)[C@H](CC(N)=O)NC(=O)[C@H](CC(=O)O)NC(=O)[C@@H]2CCCN2C1=O` [compound 332] (H-DCLGFMRKCIPDNDKCCRPNLMCSRTHKWCKYVF-NH2; disulfide 2-17, 9-23, 16-30) are 90 nM, 4.61 µM and 80 nM.
